How the values were obtained:
MOLM14 F691L cells = test: MOLM14 F691L cell viability assay (Cell Titer Glo); assay type: cell-based
Description: (§1) Both cell lines have activated FLT3 receptors, each of which carry additional resistance mutations in the kinase domain (D835Y and F691L, respectively).
(§2) MOLM14 D835Y and MOLM14 F691L cells were grown in RPMI-1640 media supplemented with 20% fetal bovine serum (FBS). For viability/cytotoxicity assessments, cells were seeded into 1536-well white polystyrene tissue culture-treated Greiner plates using a Multidrop Combi dispenser (ThermoFisher), in final volume 5 μL of growth media per well, at a density of 1000 cells per well. After cell addition, 23 nL of test compound were transferred into individual wells (22 doses tested for each test compound, with a 1:2 dilution series starting at 10 μM) via a 1536 pin-tool. Bortezomib (final concentration 2.3 μM) was used as a positive control for cell cytotoxicity. Plates were incubated for 48 hours at standard incubator conditions covered by a stainless steel gasketed lid to prevent evaporation. 48 hours post compound addition, 3 μL of Cell Titer Glo (Promega) were added to each well and plates were incubated at room temperature for 15 minutes with the stainless-steel lid in place. Luminescence readings were taken using a Viewlux imager (PerkinElmer) with a 2 second exposure time per plate.

FLT3 = target: T1, FLT3 (Homo sapiens, UniProt P36888); test: RBC HotSpot Kinase Assay, FLT3; assay type: biochemical; parameters: purchased Reaction Biology (RBC), HotSpot kinase assay; settings: isolated kinase, 33P-ATP
T1 sequence (P36888 27-993): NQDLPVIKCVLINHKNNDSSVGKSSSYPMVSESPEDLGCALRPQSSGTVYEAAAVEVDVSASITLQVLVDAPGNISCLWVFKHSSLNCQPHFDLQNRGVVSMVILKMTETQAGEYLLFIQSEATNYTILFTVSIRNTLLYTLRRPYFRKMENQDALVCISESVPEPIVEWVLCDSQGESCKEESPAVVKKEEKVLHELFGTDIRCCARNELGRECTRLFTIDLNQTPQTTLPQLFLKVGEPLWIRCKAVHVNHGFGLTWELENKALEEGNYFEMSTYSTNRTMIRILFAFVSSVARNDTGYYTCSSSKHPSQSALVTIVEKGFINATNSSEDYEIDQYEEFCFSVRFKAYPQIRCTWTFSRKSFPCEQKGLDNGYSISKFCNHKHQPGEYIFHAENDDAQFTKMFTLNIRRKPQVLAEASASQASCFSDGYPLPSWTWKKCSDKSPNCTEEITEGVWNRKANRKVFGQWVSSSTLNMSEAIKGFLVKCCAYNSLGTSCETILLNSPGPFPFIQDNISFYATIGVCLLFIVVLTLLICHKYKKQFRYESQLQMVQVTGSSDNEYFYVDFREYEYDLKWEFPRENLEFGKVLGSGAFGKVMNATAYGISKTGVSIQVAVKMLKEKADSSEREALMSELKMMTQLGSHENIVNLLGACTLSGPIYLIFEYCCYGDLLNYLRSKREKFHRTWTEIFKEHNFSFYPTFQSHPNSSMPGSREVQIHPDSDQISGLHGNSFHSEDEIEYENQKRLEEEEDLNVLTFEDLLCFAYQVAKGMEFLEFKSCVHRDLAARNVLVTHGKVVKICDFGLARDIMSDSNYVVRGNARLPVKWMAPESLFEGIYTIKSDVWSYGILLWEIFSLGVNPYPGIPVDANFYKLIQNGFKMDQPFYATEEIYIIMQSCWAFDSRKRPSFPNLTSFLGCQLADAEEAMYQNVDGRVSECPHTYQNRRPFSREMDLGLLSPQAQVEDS
Text: (§3) This assay uses the isolated kinase enzyme. This assay is very useful for determining competition of the inhibitor for ATP and/or substrates and for measuring the kinetics of enzyme inhibition. […] Unlike kinase binding assays that measure competition for ATP, the HotSpot Kinase Assay is a functional assay that measures catalytic activity; as such it measures relative functional potency regardless of the mechanism of enzyme inhibition. This assay uses the form of the various enzymes that are easiest to express, which may not necessarily be the form of the enzyme that exist in the cell. (Sometimes the carboxy terminus has been truncated to aid in expression, or, if it is a receptor kinase, the enzyme itself is isolated from the other parts of the receptor that are involved in regulating kinase activity.)
(§4) The reagent used was as follows: Base Reaction buffer; 20 mM Hepes (pH 7.5), 10 mM MgCl2, 1 mM EGTA, 0.01% Brij35, 0.02 mg/ml BSA, 0.1 mM Na3VO4, 2 mM DTT, 1% DMSO. Required cofactors were added individually to each kinase reaction.
(§5) The reaction procedure was as follows: • 1) Substrates were prepared in freshly prepared Reaction Buffer. • 2) Any required cofactors were delivered to the substrate solution above. • 3) Kinase was delivered into the substrate solution and gently mixed. • 4) Compounds were delivered in 100% DMSO into the kinase reaction mixture by Acoustic technology (Echo550; nanoliter range), followed by incubation for 20 min at room temp. • 5)^33P-ATP was delivered into the reaction mixture to initiate the reaction. • 6) The mixture was incubated for 2 hours at room temperature. • 7) Kinase activity was detected by P81 filter-binding method.

IRAK1 = target: T2, IRAK1 (Homo sapiens, UniProt P51617); test: RBC HotSpot Kinase Assay, IRAK1; assay type: biochemical; settings: isolated kinase, 33P-ATP
T2 construct: purchased Reaction Biology (RBC), HotSpot kinase assay
Text: as §3, §4, §5

MOLM14 D835Y cells = test: MOLM14 D835Y cell viability assay (Cell Titer Glo); assay type: cell-based
Description: as §1, §2

IRAK4 = target: T3, IRAK4 (Homo sapiens, UniProt Q9NWZ3); test: RBC HotSpot Kinase Assay, IRAK4; assay type: biochemical; parameters: purchased Reaction Biology (RBC), HotSpot kinase assay; settings: isolated kinase, 33P-ATP
T3 sequence (Q9NWZ3 1-460): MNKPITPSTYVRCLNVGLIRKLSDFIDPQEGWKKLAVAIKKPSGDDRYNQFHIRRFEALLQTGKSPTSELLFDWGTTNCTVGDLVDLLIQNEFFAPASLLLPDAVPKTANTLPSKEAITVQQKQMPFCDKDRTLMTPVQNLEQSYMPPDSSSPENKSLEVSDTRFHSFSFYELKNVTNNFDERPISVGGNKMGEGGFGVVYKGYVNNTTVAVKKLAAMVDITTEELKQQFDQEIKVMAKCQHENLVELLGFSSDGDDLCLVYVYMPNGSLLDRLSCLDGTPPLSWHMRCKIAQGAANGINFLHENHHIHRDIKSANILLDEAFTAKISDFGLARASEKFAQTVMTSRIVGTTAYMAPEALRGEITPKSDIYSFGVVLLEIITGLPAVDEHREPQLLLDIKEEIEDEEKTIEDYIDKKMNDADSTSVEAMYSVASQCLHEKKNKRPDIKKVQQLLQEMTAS
Text: as §3, §4, §5

T2 sequence (P51617 whole entry): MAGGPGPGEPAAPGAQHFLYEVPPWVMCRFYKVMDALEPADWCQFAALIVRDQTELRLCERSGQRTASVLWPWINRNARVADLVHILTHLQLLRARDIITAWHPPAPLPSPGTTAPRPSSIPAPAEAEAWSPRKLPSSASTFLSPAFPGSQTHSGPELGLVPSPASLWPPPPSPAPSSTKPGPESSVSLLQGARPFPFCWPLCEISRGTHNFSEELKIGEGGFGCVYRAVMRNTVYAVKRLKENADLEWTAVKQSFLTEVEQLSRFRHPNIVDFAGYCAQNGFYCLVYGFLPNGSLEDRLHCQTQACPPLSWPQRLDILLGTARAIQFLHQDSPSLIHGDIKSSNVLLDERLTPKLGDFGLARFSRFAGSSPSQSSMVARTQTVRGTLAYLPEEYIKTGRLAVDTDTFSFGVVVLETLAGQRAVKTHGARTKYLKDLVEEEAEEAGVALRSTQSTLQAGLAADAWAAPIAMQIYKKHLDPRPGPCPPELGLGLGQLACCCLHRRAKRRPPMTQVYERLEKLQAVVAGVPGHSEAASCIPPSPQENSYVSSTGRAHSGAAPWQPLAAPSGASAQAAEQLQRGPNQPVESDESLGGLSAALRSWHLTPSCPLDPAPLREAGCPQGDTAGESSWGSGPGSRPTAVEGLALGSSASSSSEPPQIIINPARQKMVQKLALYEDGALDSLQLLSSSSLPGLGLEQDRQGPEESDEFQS

| SMILES | IC50 (MOLM14 F691L cells; Homo sapiens, MOLM-14, 48 h) [nM] | IC50 (FLT3) [nM] | IC50 (IRAK1) [nM] | IC50 (MOLM14 D835Y cells; Homo sapiens, MOLM-14, 48 h) [nM] | IC50 (IRAK4) [nM] | IC50 (MOLM14 F691L cells; 48 hours) [nM] | IC50 (MOLM14 D835Y cells; 48 hours) [nM] |
| --- | --- | --- | --- | --- | --- | --- | --- |
| CC(O)(c1cn2c(-c3cc(F)cc(N[C@H]4CNC[C@@H]4F)n3)cnc2cn1)C(F)(F)F (single isomer, unassigned) [Compound 84] |  | 0.6 | 114 |  | 2 | 410 | 183 |
| CC(O)(c1cn2c(-c3cc(F)cc(N[C@@H]4CCCNC4)n3)cnc2cn1)C(F)(F)F (single isomer, unassigned) [Compound 85] | 290 | 0.6 | 106 | 154 | 54 |  |  |
| CC(O)(c1cn2c(-c3cc(F)cc(N[C@@H]4CCCNC4)n3)cnc2cn1)C(F)(F)F (single isomer, unassigned) [Compound 87] |  | 0.7 | 46 |  | 5 | 309 | 116 |
| CC(O)(c1cn2c(-c3cc(F)cc(N[C@H]4CNCC[C@@H]4F)n3)cnc2cn1)C(F)(F)F (single isomer, unassigned) [Compound 88] |  | 1 | 69 |  | 15 | 217 | 97 |
| CC(O)(c1cn2c(-c3nc(N[C@H]4CNCC[C@@H]4F)c(F)cc3F)cnc2cn1)C(F)(F)F (single isomer, unassigned) [Compound 94] |  | 1 | 8 |  | 0.8 | 864 | 77 |
| F[C@H]1CNC[C@@H]1Nc1cccc(-c2cnc3cnc(C4(C(F)(F)F)CC4)cn23)n1 [Compound 8, N-((3S,4S)-4-fluoropyrrolidin-3-yl)-6-(6-(1-(trifluoromethyl)cyclopropyl)imidazo[1,2-a]pyrazin-3-yl)pyridin-2-amine] | 376 | < 0.5 | 138 | 44 | 2 |  |  |
| FC(F)(F)C1(c2cn3c(-c4cccc(N[C@H]5CNCC56CC6)n4)cnc3cn2)CC1 [Compound 12, (R)-N-(6-(6-(1-(trifluoromethyl)cyclopropyl)imidazo[1,2-a]pyrazin-3-yl)pyridin-2-yl)-5-azaspiro[2.4]heptan-7-amine] | 72 | < 0.5 | 165 | 7 | 3 |  |  |

Results, then the compound that gave them:

| IC50 (MOLM14 F691L cells; Homo sapiens, MOLM-14, 48 h) [nM] | IC50 (FLT3) [nM] | IC50 (IRAK1) [nM] | IC50 (MOLM14 D835Y cells; Homo sapiens, MOLM-14, 48 h) [nM] | IC50 (IRAK4) [nM] | IC50 (MOLM14 F691L cells; 48 hours) [nM] | IC50 (MOLM14 D835Y cells; 48 hours) [nM] | SMILES |
| --- | --- | --- | --- | --- | --- | --- | --- |
| 486 | < 0.5 | 329 | 344 | 28 |  |  | CC(O)(c1cn2c(-c3cc(F)cc(N[C@H]4CNC[C@@H]4F)n3)cnc2cn1)C(F)(F)F (single isomer, unassigned) [Compound 83] |
| 365 | 0.9 | 144 |  | 65 |  | 205 | CC(O)(c1cn2c(-c3cc(F)cc(N[C@H]4CNCC[C@@H]4F)n3)cnc2cn1)C(F)(F)F (single isomer, unassigned) [Compound 86] |
| 649 | < 0.5 | 9 |  | < 0.5 |  | 41 | CC(O)(c1cn2c(-c3nc(N[C@@H]4CCCNC4)c(F)cc3F)cnc2cn1)C(F)(F)F (single isomer, unassigned) [Compound 89] |
|  | 2 | 16 |  | 7 | 817 | 96 | CC(O)(c1cn2c(-c3nc(N[C@@H]4CCCNC4)c(F)cc3F)cnc2cn1)C(F)(F)F (single isomer, unassigned) [Compound 90] |
| 1540 | 3 | 40 |  | 2 |  | 195 | CC(O)(c1cn2c(-c3nc(N[C@H]4CNC[C@@H]4F)c(F)cc3F)cnc2cn1)C(F)(F)F (single isomer, unassigned) [Compound 91] |
| 969 | 2 | 11 | 87 | 2 |  |  | CC(O)(c1cn2c(-c3nc(N[C@H]4CNCC[C@@H]4F)c(F)cc3F)cnc2cn1)C(F)(F)F (single isomer, unassigned) [Compound 92] |
|  | 1 | 8 |  | < 0.5 | 969 | 73 | CC(O)(c1cn2c(-c3nc(N[C@H]4CNC[C@@H]4F)c(F)cc3F)cnc2cn1)C(F)(F)F (single isomer, unassigned) [Compound 93] |
| 34 | < 0.5 | 67 | 7 | 0.7 |  |  | CC1(c2cn3c(-c4cccc(N[C@@H]5CCCNC5)n4)cnc3cn2)CC1 [Compound 2, (R)-6-(6-(1-methylcyclopropyl)imidazo[1,2-a]pyrazin-3-yl)-N-(piperidin-3-yl)pyridin-2-amine] |
| 106 | < 0.5 | 126 | 18 | 7 |  |  | FC(F)(F)C1(c2cn3c(-c4cccc(N[C@@H]5CCCNC5)n4)cnc3cn2)CC1 [Compound 9, (R)-N-(piperidin-3-yl)-6-(6-(1-(trifluoromethyl)cyclopropyl)imidazo[1,2-a]pyrazin-3-yl)pyridin-2-amine] |
|  | < 0.5 | 196 | 9 | 1 |  |  | Cn1cc(-c2cn3c(-c4cccc(N[C@@H]5CCNC5)n4)cnc3cn2)cn1 [Compound 49, (R)-6-(6-(1-methyl-1H-pyrazol-4-yl)imidazo[1,2-a]pyrazin-3-yl)-N-(pyrrolidin-3-yl)pyridin-2-amine] |
| 237 |  |  | 84 |  |  |  | CC(O)(c1cn2c(-c3cccc(N[C@@H]4CCCNC4)n3)cnc2cn1)C(F)(F)F (stereo partly drawn) [Compound 79, 1,1,1-trifluoro-2-(3-(6-((R)-piperidin-3-ylamino)pyridin-2-yl)imidazo[1,2-a]pyrazin-6-yl)propan-2-ol] |

From patent US12612410B2 (CHILDREN'S HOSPITAL MEDICAL CENTER, priority 2020, dated 2026)
